From US20250243180A1, “TARGETED PROTEIN DEGRADATION” (Monte Rosa Therapeutics AG, priority 2023, published 2025)
Where two headings read alike, the source gives them in different places.

Key:
NEK7 = NEK7 (Homo sapiens (Human), UniProt Q8TDX7+Q96SW2); test: NEK7 NanoBiT degradation assay in Cal51 NEK7 NanoBiT cell line; format: cell-based; conditions: Cal51 NEK7 NanoBiT cells, 24 hours; for Dmax: CAL-51
Summary of the method: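 EC50 comes from a 4-parameter fit of control-normalized luminescence. The luminescence reports HiBiT-NEK7 (endogenous knock-in) complemented by stably expressed LgBiT in Cal51 cells after 24 h compound exposure at 37 °C. Final concentrations ran 1 μM to 0.05 nM, with Endurazine substrate present in the medium throughout.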

CRBN-DDB1 = CRBN-DDB1 (Homo sapiens (Human), UniProt Q96SW2); test: Compound binding to CRBN by HTRF assay
Chain of CRBN-DDB1 (Q96SW2 whole entry): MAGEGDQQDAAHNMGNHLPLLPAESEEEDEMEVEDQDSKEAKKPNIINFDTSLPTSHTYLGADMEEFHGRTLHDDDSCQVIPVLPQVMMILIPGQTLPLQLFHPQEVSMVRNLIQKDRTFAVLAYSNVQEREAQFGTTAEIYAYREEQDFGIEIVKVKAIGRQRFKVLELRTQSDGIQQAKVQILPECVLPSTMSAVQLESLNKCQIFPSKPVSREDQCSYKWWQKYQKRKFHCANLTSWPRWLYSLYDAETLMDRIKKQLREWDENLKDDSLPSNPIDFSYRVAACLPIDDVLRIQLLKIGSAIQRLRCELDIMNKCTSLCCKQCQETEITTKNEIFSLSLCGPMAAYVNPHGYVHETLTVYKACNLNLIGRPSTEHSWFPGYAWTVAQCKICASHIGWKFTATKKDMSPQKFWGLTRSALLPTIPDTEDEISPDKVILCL
Chain of CRBN-DDB1 (Q16531 whole entry partner): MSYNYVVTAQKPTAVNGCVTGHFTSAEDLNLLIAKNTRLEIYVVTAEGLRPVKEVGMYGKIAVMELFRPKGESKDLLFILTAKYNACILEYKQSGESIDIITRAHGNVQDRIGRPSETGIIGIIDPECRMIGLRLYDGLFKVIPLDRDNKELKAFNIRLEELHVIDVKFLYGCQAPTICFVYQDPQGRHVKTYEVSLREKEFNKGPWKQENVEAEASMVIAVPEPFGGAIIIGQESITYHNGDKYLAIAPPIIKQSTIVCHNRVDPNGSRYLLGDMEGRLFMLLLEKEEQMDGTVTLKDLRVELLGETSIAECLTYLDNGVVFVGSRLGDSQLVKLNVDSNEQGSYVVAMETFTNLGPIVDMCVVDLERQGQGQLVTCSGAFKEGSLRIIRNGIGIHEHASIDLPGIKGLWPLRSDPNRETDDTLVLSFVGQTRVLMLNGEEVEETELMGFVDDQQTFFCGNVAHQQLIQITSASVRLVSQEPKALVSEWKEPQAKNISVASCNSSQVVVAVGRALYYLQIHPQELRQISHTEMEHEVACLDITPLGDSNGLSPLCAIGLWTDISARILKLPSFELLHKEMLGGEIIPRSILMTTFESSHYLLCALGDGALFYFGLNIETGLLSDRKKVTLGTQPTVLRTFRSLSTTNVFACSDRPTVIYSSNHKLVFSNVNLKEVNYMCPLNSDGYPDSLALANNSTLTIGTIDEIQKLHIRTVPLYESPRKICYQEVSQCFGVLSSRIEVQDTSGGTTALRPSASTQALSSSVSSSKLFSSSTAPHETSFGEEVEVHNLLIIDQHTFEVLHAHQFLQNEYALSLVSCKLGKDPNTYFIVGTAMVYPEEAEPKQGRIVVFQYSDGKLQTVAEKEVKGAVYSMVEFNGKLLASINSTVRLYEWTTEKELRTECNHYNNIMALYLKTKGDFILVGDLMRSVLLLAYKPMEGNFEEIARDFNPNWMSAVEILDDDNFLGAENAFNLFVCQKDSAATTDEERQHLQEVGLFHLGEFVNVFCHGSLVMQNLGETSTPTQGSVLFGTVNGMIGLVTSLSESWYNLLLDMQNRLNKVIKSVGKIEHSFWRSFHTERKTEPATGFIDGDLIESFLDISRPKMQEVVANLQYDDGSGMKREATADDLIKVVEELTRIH
Summary of the method: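 Ki calculated via Cheng-Prusoff from geometric-mean EC50 values, after normalizing the HTRF ratio to lenalidomide (active) and DMSO (neutral) controls. Compounds (11 points, 1:3 steps) incubated 30 min at ambient temperature with CRBN-DDB1 2.5 nM, anti-His Tb cryptate and Cy5-thalidomide tracer 100 nM.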

[1] = NEK7 degradation, read-out: NanoBiT Dmax
[2] = NEK7 degradation, read-out: NanoBiT DC50

Chain of NEK7 (Q8TDX7 whole entry): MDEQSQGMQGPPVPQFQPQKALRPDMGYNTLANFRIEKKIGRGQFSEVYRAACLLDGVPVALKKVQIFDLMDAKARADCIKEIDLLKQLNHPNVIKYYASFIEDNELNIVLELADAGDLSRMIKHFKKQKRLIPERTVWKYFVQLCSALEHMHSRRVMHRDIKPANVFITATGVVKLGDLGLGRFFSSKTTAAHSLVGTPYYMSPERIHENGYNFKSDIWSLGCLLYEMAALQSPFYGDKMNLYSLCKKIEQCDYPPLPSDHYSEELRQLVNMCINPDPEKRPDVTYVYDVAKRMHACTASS
Chain of NEK7 (Q96SW2 whole entry): as the sequence (Q96SW2 whole entry) above
Chain of NEK7 (Q16531 2-1140 partner): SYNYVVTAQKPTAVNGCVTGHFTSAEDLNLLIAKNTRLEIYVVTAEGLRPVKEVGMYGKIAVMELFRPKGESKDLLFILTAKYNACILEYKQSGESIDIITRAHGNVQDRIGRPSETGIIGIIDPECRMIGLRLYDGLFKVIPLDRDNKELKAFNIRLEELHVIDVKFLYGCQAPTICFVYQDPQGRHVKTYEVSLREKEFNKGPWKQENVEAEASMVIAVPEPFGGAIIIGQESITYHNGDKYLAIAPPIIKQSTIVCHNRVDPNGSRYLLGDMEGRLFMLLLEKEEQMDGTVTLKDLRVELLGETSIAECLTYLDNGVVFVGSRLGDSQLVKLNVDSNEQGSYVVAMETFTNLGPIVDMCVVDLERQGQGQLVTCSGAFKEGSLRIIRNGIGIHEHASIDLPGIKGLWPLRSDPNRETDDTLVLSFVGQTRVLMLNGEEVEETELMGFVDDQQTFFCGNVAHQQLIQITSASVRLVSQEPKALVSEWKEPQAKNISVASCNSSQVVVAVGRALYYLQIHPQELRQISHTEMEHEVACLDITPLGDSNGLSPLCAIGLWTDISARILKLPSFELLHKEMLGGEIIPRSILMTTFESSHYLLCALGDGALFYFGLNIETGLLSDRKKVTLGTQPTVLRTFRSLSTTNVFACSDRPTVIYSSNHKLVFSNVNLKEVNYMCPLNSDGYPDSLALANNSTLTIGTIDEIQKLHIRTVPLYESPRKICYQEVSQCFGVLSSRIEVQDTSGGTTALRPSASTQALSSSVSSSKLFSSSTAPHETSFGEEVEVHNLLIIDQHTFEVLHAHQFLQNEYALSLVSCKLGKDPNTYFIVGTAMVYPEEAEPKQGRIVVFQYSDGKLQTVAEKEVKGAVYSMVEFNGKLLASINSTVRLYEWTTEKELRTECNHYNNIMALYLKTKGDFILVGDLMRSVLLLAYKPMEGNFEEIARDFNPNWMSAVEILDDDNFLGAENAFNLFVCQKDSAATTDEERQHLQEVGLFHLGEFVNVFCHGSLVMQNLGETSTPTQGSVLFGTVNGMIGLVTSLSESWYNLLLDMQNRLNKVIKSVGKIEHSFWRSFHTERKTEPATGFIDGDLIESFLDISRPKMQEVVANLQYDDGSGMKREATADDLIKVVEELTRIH

Compound | Dmax (NEK7; read-out: NEK7 NanoBiT Dmax) | Dmax (NEK7; [1]) | DC50 (NEK7; read-out: NEK7 NanoBiT DC50) | DC50 (NEK7; [2]) | EC50 (CRBN-DDB1) | EC50 (CRBN-DDB1; HTRF class, Cereblon binding)
CC(C)(O)c1cnc(C(C)(C)C(=O)NCc2cc(Cl)c(C3CCC(=O)NC3=O)c(Cl)c2)nc1 (stereo not drawn) [Compound 147] | 52% | 50 to 75% | 776 nM | 100 to 1000 nM | 550 nM | 100 to 1000 nM
Cn1cccc(C(C)(C)C(=O)NCc2cc(Cl)c(C3CCC(=O)NC3=O)c(Cl)c2)c1=O (stereo not drawn) [Compound 148, N-(3,5-dichloro-4-(2,6-dioxopiperidin-3-yl)benzyl)-2-methyl-2-(1-methyl-2-oxo-1,2-dihydropyridin-3-yl)propanamide] | 58% | 50 to 75% | 176 nM | 100 to 1000 nM | 150 nM | 100 to 1000 nM
Cc1nccc(C(C)(C)C(=O)NCc2cc(Cl)c(C3CCC(=O)NC3=O)c(Cl)c2)n1 (stereo not drawn) [Compound 150] | 53% | 50 to 75% | 91 nM | ≤ 100 nM | 150 nM | 100 to 1000 nM
CC(C)(C(=O)NCc1cc(Cl)c(C2CCC(=O)NC2=O)c(Cl)c1)c1cc(C2CC2)ncn1 (stereo not drawn) [Compound 151] | 60% | 50 to 75% | 88 nM | ≤ 100 nM | 480 nM | 100 to 1000 nM
CC(C)(C(=O)NCc1cc(Cl)c(C2CCC(=O)NC2=O)c(Cl)c1)c1ccnc(C(F)F)n1 (stereo not drawn) [Compound 156, N-(3,5-dichloro-4-(2,6-dioxopiperidin-3-yl)benzyl)-2-(2-(difluoromethyl)pyrimidin-4-yl)-2-methylpropanamide] | 54% | 50 to 75% | 435 nM | 100 to 1000 nM | 330 nM | 100 to 1000 nM
CC(C)(C(=O)NCc1cc(Cl)c(C2CCC(=O)NC2=O)c(Cl)c1)c1cc(C#N)ccn1 (stereo not drawn) [Compound 157] | 60% | 50 to 75% | 178 nM | 100 to 1000 nM | 190 nM | 100 to 1000 nM
Cc1noc(C(C)(C)C(=O)NCc2cc(Cl)c(C3CCC(=O)NC3=O)c(Cl)c2)n1 (stereo not drawn) [Compound 164] | 68% | 50 to 75% | 66 nM | ≤ 100 nM | 240 nM | 100 to 1000 nM
CC(C)(C(=O)NCc1cc(Cl)c(C2CCC(=O)NC2=O)c(Cl)c1)N1CCc2ccccc21 (stereo not drawn) [Compound 166, N-(3,5-dichloro-4-(2,6-dioxopiperidin-3-yl)benzyl)-2-(indolin-1-yl)-2-methylpropanamide] | 56% | 50 to 75% | 203 nM | 100 to 1000 nM | 90 nM | ≤ 100 nM
CC(C)(C(=O)NCc1cc(Cl)c(C2CCC(=O)NC2=O)c(Cl)c1)c1nccc(C2CC2)n1 (stereo not drawn) [Compound 168] | 57% | 50 to 75% | 137 nM | 100 to 1000 nM | 150 nM | 100 to 1000 nM
CC(C)(C(=O)NCc1cc(Cl)c(C2CCC(=O)NC2=O)c(Cl)c1)N1Cc2ccccc2C1 (stereo not drawn) [Compound 170, N-(3,5-dichloro-4-(2,6-dioxopiperidin-3-yl)benzyl)-2-(isoindolin-2-yl)-2-methylpropanamide] | 73% | 50 to 75% | 55 nM | ≤ 100 nM | 180 nM | 100 to 1000 nM
Cc1cncc(C(C)(C)C(=O)NCc2cc(Cl)c(C3CCC(=O)NC3=O)c(Cl)c2)n1 (stereo not drawn) [Compound 176] | 60% | 50 to 75% | 116 nM | 100 to 1000 nM | 50 nM | ≤ 100 nM
Cn1ccc(C2(C(=O)NCc3cc(Cl)c(C4CCC(=O)NC4=O)c(Cl)c3)CCC2)cc1=O (stereo not drawn) [Compound 177] | 85% | > 75% | 53 nM | ≤ 100 nM | 550 nM | 100 to 1000 nM
CC(C)(C(=O)NCc1cc(Cl)c(C2CCC(=O)NC2=O)c(Cl)c1)c1ncc(C2COC2)cn1 (stereo not drawn) [Compound 178] | 66% | 50 to 75% | 95 nM | ≤ 100 nM | 290 nM | 100 to 1000 nM
COCc1cnc(C(C)(C)C(=O)NCc2cc(Cl)c(C3CCC(=O)NC3=O)c(Cl)c2)nc1 (stereo not drawn) [Compound 183] | 71% | 50 to 75% | 56 nM | ≤ 100 nM | 370 nM | 100 to 1000 nM
CC(C)(C(=O)NCc1cc(Cl)c(C2CCC(=O)NC2=O)c(Cl)c1)c1ncc(CC(F)F)cn1 (stereo not drawn) [Compound 186] | 65% | 50 to 75% | 90 nM | ≤ 100 nM | 90 nM | ≤ 100 nM

More lines, in order of falling DC50 (NEK7; read-out: NEK7 NanoBiT DC50), values ahead:

Dmax (NEK7; read-out: NEK7 NanoBiT Dmax) | Dmax (NEK7; [1]) | DC50 (NEK7; read-out: NEK7 NanoBiT DC50) | DC50 (NEK7; [2]) | EC50 (CRBN-DDB1) | EC50 (CRBN-DDB1; HTRF class, Cereblon binding) | Compound
69% | 50 to 75% | 54 nM | ≤ 100 nM | 230 nM | 100 to 1000 nM | CC(C)(C(=O)NCc1cc(Cl)c(C2CCC(=O)NC2=O)c(Cl)c1)c1cnccn1 (stereo not drawn) [Compound 161]
72% | 50 to 75% | 54 nM | ≤ 100 nM | 200 nM | 100 to 1000 nM | CC(C)(C(=O)NCc1cc(Cl)c(C2CCC(=O)NC2=O)c(Cl)c1)c1nccc(C(F)F)n1 (stereo not drawn) [Compound 182]
69% | 50 to 75% | 47 nM | ≤ 100 nM | 170 nM | 100 to 1000 nM | CC(C)(C(=O)NCc1cc(Cl)c(C2CCC(=O)NC2=O)c(Cl)c1)c1ncc(N2CCC2)cn1 (stereo not drawn) [Compound 165]
75% | 50 to 75% | 42 nM | ≤ 100 nM | 180 nM | 100 to 1000 nM | O=C1CCC(c2c(Cl)cc(CNC(=O)C3(c4ncccn4)CCC3)cc2Cl)C(=O)N1 (stereo not drawn) [Compound 169, N-(3,5-dichloro-4-(2,6-dioxopiperidin-3-yl)benzyl)-1-(pyrimidin-2-yl)cyclobutane-1-carboxamide]
76% | > 75% | 34 nM | ≤ 100 nM | 200 nM | 100 to 1000 nM | Cc1ccnc(C(C)(C)C(=O)NCc2cc(Cl)c(C3CCC(=O)NC3=O)c(Cl)c2)n1 (stereo not drawn) [Compound 160]
77% | > 75% | 30 nM | ≤ 100 nM | 180 nM | 100 to 1000 nM | CC(C)(C(=O)NCc1cc(Cl)c(C2CCC(=O)NC2=O)c(Cl)c1)c1nccc(C(F)(F)F)n1 (stereo not drawn) [Compound 174]
79% | > 75% | 28 nM | ≤ 100 nM | 280 nM | 100 to 1000 nM | CC(C)(C(=O)NCc1cc(Cl)c(C2CCC(=O)NC2=O)c(Cl)c1)c1cc(C(F)F)ncn1 (stereo not drawn) [Compound 159]
85% | > 75% | 19 nM | ≤ 100 nM | 230 nM | 100 to 1000 nM | Cc1cc(C(C)(C)C(=O)NCc2cc(Cl)c(C3CCC(=O)NC3=O)c(Cl)c2)ncn1 (stereo not drawn) [Compound 173]
80% | > 75% | 18 nM | ≤ 100 nM | 250 nM | 100 to 1000 nM | Cc1cnc(C(C)(C)C(=O)NCc2cc(Cl)c(C3CCC(=O)NC3=O)c(Cl)c2)o1 (stereo not drawn) [Compound 163]
83% | > 75% | 15 nM | ≤ 100 nM | 220 nM | 100 to 1000 nM | CC(C)(C(=O)NCc1cc(Cl)c(C2CCC(=O)NC2=O)c(Cl)c1)c1cc(C2CC2)on1 (stereo not drawn) [Compound 185]
85% | > 75% | 12 nM | ≤ 100 nM | 130 nM | 100 to 1000 nM | CC(C)(C(=O)NCc1cc(Cl)c(C2CCC(=O)NC2=O)c(Cl)c1)c1cc(F)ccn1 (stereo not drawn) [Compound 149]
91% | > 75% | 8 nM | ≤ 100 nM | 320 nM | 100 to 1000 nM | Cc1cncnc1C(C)(C)C(=O)NCc1cc(Cl)c(C2CCC(=O)NC2=O)c(Cl)c1 (stereo not drawn) [Compound 158]
90% | > 75% | 7 nM | ≤ 100 nM | 120 nM | 100 to 1000 nM | CC(C)(C(=O)NCc1cc(Cl)c(C2CCC(=O)NC2=O)c(Cl)c1)c1cccc2ocnc12 (stereo not drawn) [Compound 171]
94% | > 75% | 6 nM | ≤ 100 nM | 280 nM | 100 to 1000 nM | CC(C)(C(=O)NCc1cc(Cl)c(C2CCC(=O)NC2=O)c(Cl)c1)c1ncc(C(F)(F)F)cn1 (stereo not drawn) [Compound 175]
91% | > 75% | 5 nM | ≤ 100 nM | 180 nM | 100 to 1000 nM | CC(C)(C(=O)NCc1cc(Cl)c(C2CCC(=O)NC2=O)c(Cl)c1)c1cc2ocnc2cn1 (stereo not drawn) [Compound 146]
95% | > 75% | 3 nM | ≤ 100 nM | 180 nM | 100 to 1000 nM | CC(C)(C(=O)NCc1cc(Cl)c(C2CCC(=O)NC2=O)c(Cl)c1)c1ccc2ncoc2n1 (stereo not drawn) [Compound 184]
97% | > 75% | 2 nM | ≤ 100 nM | 190 nM | 100 to 1000 nM | Cn1c(F)cc(C(C)(C)C(=O)NCc2cc(Cl)c(C3CCC(=O)NC3=O)c(Cl)c2)cc1=O (stereo not drawn) [Compound 172]
96% | > 75% | 1 nM | ≤ 100 nM | 90 nM | ≤ 100 nM | CC(C)(C(=O)NCc1cc(Cl)c(C2CCC(=O)NC2=O)c(Cl)c1)c1nc2ccccc2o1 (stereo not drawn) [Compound 167]
